Source: article PMC4844192 (ACS chemical biology, 2015)

Key:
CtBP [1] = conditions: cited from earlier work
mouse xenograft models = conditions: compared with untreated mice; cited from earlier work
CtBP [2] = conditions: cited from earlier work; remark: listed apart in the source
CtBP [3] = assay type: biochemical, human
[4] = tested on: HCT116 colon cancer cells; conditions: through displacement of CtBP2 from the Bik promoter; cited from earlier work
CtBP2 = CtBP2 (Homo sapiens, UniProt P56545); test: Isothermal titration calorimetry; assay type: binding
CtBP1 = CtBP1 (Homo sapiens, UniProt Q13363); test: Isothermal titration calorimetry; conditions: CtBP1, pH 7.5, displacement ITC with HIPP
[5] = CtBP2, pH 8.5, competitive displacement ITC with HIPP

NC(=O)C1=CN([C@@H]2O[C@H](COP(=O)(O)OP(=O)(O)OC[C@H]3O[C@@H](n4cnc5c(N)ncnc54)[C@H](O)[C@@H]3O)[C@@H](O)[C@H]2O)C=CC1 [NADH]
affinity of CtBP for NADH relative to NAD+ (CtBP [1]): 100 fold

CSCCC(=O)C(=O)O [MTOB, 4-methylthio 2-oxobutyric acid]
survival (mouse xenograft models): prolonged survival | tumor burden (mouse xenograft models): decreased tumor burden | concentrations required for (substrate) inhibition of CtBP (CtBP [2]): > 300 µM | substrate inhibition (CtBP [3]; MTOB in excess): exhibits substrate inhibition when in excess | apoptosis [4]: induced apoptosis | binding dissociation constant, direct ITC measurement (CtBP2; CtBP2, direct titration, low signal): low millimolar range | ΔG (CtBP2; [5]): -3.4 kcal | ΔH (CtBP2; [5]): -3.4 ± 0.34 kcal/mol | −TΔS (CtBP2; [5]): 0.0 kcal/mol | ΔG (CtBP1): -3.9 kcal | ΔH (CtBP1): -11.3 ± 0.83 kcal/mol | −TΔS (CtBP1): 7.4 kcal/mol

O=C(O)C(=O)Cc1ccccc1 [PPy, phenylpyruvate]
IC50 (CtBP [3]; CtBP dehydrogenase function, after 15 minutes): 135 µM | binding relative to MTOB (ITC injection peaks) (CtBP2; CtBP2, low PPy concentrations, CtBP2 precipitation prevented quantitation): tighter than MTOB
